Test results from patent US9176124B2, “Method for measurement of equol in biological sample by immunoassay, kit for the measurement, and method for determination of equol production ability of subject” (OTSUKA PHARMACEUTICAL CO., LTD., priority 2009, dated 2015).

How the values were obtained:
[1] = system: anti-equol rabbit antiserum (primary antibody); test: Cross-reactivity of the primary antibody by competitive ELISA (Test Example 2); assay type: binding; details: (IC20 of S-equol/IC20 of each isoflavone, etc.)×100, S-equol assumed 100%, horseradish peroxidase-labeled S-equol as labeled antigen, samples in 100% charcoal-treated human serum
From the text: The above cross-reactivity can be explained as follows. Specifically, the above cross-reactivity indicates a ratio (%) of the concentration (IC20) of unlabeled S-equol at which the binding reaction of labeled S-equol to the anti-equol antibody can be inhibited by 20%, to the concentration (IC20) of each isoflavone and the like at which the binding reaction of labeled S-equol to the anti-equol antibody can be inhibited by 20%. More specifically, in the competitive reaction between labeled S-equol and unlabeled S-equol, the concentration of unlabeled S-equol at which the binding of labeled S-equol to the antibody is 80 is determined, assuming that the binding of labeled S-equol alone to the antibody is 100. Similarly, each unlabeled isoflavone and the like are competitively reacted with labeled S-equol, and the concentration of each isoflavone and the like at which binding of labeled S-equol to the antibody is 80 is determined.
The thus-determined ratio (expressed in percentage) between the concentration (IC20) of the unlabeled S-equol and the concentration (IC20) of each isoflavone and the like is referred to as the cross-reactivity. This is represented by the following formula: Cross-reactivity (%)=(IC20 of S-equol/IC20 of each isoflavone, etc.)×100
Herein, the cross-reactivity rate is determined by competitive ELISA, using S-equol as the standard antigen used for the preparation of a standard curve, as well as the labeled antigen that competes with equol in a biological sample.
In this Test Example, the cross-reactivity of the primary antibody was examined for the case where competitive ELISA was employed and S-equol was used as both the standard antigen and the labeled antigen. Specifically, the cross-reactivity was examined as follows.
Each of the isoflavones and the like shown in the later-described Table 4 was dissolved in 100% charcoal-treated human serum, and the resulting solution was used as a sample.
An anti-equol rabbit antiserum was used as the primary antibody, as in Example 1. The antiserum was suitably diluted with the later-described antiserum dilution buffer, and used in the test.
A goat anti-rabbit IgG antibody was used as a secondary antibody, as in Example 1. The antibody was immobilized to a solid phase as in Example 1, thus preparing a plate containing immobilized goat anti-rabbit IgG antibody.
Horseradish peroxidase-labeled S-equol was used as a labeled antigen, as in Example 1.
S-equol was used as a standard antigen, as in Example 1. Note that a standard equol solution in the forth of a mixed solution of S-equol (0, 30, 90, 270, or 810 ng/mL) and 100% charcoal-treated human serum was used.
A concentration dilution series was prepared for each of the isoflavones and the like, and for unlabeled S-equol. The adsorption by each of the isoflavones and the like, and the adsorption by unlabeled S-equol in the competitive reaction were measured from when the concentrations of these substances were 0 to when the concentrations of these substances were added in excess amounts. Each of the thus-obtained measured values was checked against a standard curve obtained from the dilution series of the standard antigen (S-equol), so as to compare the inhibition of the reaction based on each calculated value. Thereby, the concentration (IC20) of each of the isoflavones and the like, as well as the concentration (IC20) of unlabeled S-equol, at which the binding reaction of labeled S-equol to the anti-equol antibody is inhibited by 20%, were determined.
The competitive reaction was performed using competitive ELISA by a procedure similar to that in Example 1. Further, horseradish peroxidase was used as a labeling substance.
The ratio (expressed in percentage) of the thus-obtained concentration of each of the isoflavones and the like to the thus-obtained concentration of unlabeled S-equol was regarded as the cross-reactivity. […]

Labmaster Equol TR-FIA [2] = details: heretofore known kit; cited from earlier work
monoclonal antibody = details: Clinical Chemistry 53: 748-756, 2007; cited from earlier work
Labmaster Equol TR-FIA [3] = test: Cross-reactivity of the known kit Labmaster Equol TR-FIA; assay type: binding; details: with daidzein
From the text: Further, for example, when Labmaster Equol TR-FIA, which is a heretofore known kit manufactured by Labmaster, is used, the cross-reactivity rate with daidzein is 0.8% (see labmaster.fi/products/tr-fia-kitS-equol-tr-fia.htm), and the cross-reactivity of the kit is 10 times as high as that of the present kit.

Row | Structure (SMILES) | Cross-reactivity Rate [1] | further results
1 | O=c1cc(-c2ccc(O)cc2)oc2cc(O)cc(O)c12 [Apigenin] | 0.00% | –
2 | COc1ccc(-c2coc3cc(O)cc(O)c3c2=O)cc1 [Biochanin A] | 0.11% | –
3 | O=c1c(-c2ccc(O)cc2)coc2cc(O)ccc12 [Daidzein] | 0.08% | Cross-reactivity Rate (Labmaster Equol TR-FIA [2]): 0.8%; Cross-reactivity Rate ([1]; listed as daidzein): 0.08%; Cross-reactivity Rate (monoclonal antibody): < 0.04%; cross-reactivity of the Labmaster kit relative to the present kit (Labmaster Equol TR-FIA [3]): 10 times
4 | O=c1c(-c2ccc(O)cc2)coc2cc(O[C@@H]3O[C@H](CO)[C@@H](O)[C@H](O)[C@H]3O)ccc12 [Daidzin] | 0.06% | Cross-reactivity Rate ([1]; listed as daidzin): 0.06%
5 | Oc1ccc(C2=Cc3ccc(O)cc3OC2)cc1 [Dehydroequol] | 0.33% | Cross-reactivity Rate (Labmaster Equol TR-FIA [2]): 42.3%; Cross-reactivity Rate ([1]; listed as dehydroequol): 0.33%
6 | O=C1c2ccc(O)cc2OCC1c1ccc(O)cc1 (centres unmarked) [Dihydrodaizein] | 1.03% | Cross-reactivity Rate (Labmaster Equol TR-FIA [2]): 4.0%; Cross-reactivity Rate ([1]; listed as dihydrodaidzein): 1.03%
7 | O=c1c(-c2ccc(O)cc2)coc2cc(O)cc(O)c12 [Genistein] | 0.05% | –
8 | O=c1c(-c2ccc(O)cc2)coc2cc(O[C@@H]3O[C@H](CO)[C@@H](O)[C@H](O)[C@H]3O)cc(O)c12 [Genistin] | 0.06% | –
9 | COc1cc2c(=O)c(-c3ccc(O)cc3)coc2cc1O [Glycitein] | 0.03% | –
10 | COc1cc2c(=O)c(-c3ccc(O)cc3)coc2cc1O[C@@H]1O[C@H](CO)[C@@H](O)[C@H](O)[C@H]1O [Glycitin] | 0.02% | –
11 | O=c1cc(-c2ccc(O)c(O)c2)oc2cc(O)cc(O)c12 [Luteolin] | 0.00% | –
12 | Oc1ccc([C@@H]2COc3cc(O)ccc3C2)cc1 [R-Equol] | 13.24% | Cross-reactivity Rate ([1]; listed as R-equol): 13.24%
13 | Oc1ccc([C@H]2COc3cc(O)ccc3C2)cc1 [S-Equol] | 100.00% | –
